Assay results: patent US6391907B1, “Indoline derivatives” (American Home Products Corporation, priority 1999, dated 2002)
“And” between values parts separate entries of the source, which are not always exact repeats. Equal entries are not always repeated.

Legend:
[1] = system: rat uterine decidualization; experiment: Rat decidualization assay; assay type: in vivo; settings: rat decidualization, antiprogestational mode, read-out: Decid. IC50 mg/kg
Experimental: 1. Rat Decidualization Assay
The animals are treated once daily for seven days.
Uteri are removed and trimmed of fat.
Decidual response: [(D-C)/C]×100%

[2] = target: T1, A-form of the human progesterone receptor (Homo sapiens, UniProt P06401); experiment: hPR binding assay (competitive radioligand binding)
T1 sequence (P06401 1-769 isoform P06401-2): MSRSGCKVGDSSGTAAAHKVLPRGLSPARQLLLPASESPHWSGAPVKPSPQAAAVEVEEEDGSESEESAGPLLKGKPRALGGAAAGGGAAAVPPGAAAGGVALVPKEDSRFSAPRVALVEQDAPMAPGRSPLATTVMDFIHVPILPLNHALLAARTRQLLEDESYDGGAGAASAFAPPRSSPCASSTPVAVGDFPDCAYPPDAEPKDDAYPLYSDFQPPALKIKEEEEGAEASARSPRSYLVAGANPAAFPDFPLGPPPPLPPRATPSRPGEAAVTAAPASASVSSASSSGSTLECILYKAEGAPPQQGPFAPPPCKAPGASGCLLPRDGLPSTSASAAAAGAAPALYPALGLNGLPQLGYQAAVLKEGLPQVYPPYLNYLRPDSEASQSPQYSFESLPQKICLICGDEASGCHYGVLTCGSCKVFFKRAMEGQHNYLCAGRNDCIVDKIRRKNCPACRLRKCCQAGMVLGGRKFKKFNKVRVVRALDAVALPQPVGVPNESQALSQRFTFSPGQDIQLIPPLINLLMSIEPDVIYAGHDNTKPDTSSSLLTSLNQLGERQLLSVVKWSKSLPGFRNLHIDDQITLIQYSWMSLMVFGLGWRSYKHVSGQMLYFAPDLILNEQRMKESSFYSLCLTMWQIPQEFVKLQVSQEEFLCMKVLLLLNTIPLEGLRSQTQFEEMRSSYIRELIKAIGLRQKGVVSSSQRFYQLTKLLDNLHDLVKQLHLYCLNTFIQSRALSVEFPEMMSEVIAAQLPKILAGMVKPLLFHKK

[3] = system: T47D cells; experiment: T47D cell proliferation assay (BrdU incorporation); assay type: cell-based; settings: half-maximal increase in BrdU incorporation, individual studies
Experimental: 3. T47D Cell Proliferation Assay
The objective of this assay is the determination of progestational and antiprogestational potency by using a cell proliferation assay in T47D cells. A compound's effect on DNA synthesis in T47D cells is measured.
DMEM:F12 (1:1) (GIBCO, BRL) supplemented with 10% (v/v) fetal bovine serum (not heat-inactivated), 100 U/ml penicillin, […], and 2 mM GlutaMax (GIBCO, BRL).
Minimum Essential Medium (MEM) (#51200-038GIBCO, BRL) phenol red-free supplemented with 0.5% charcoal stripped fetal bovine serum, 100 U/ml penicillin, 200 mg/ml streptomycin, and 2 mM GlutaMax (GIBCO, BRL).
Stock T47 D cells are maintained in growth medium For BrdU incorporation assay, cells are plated in 96-well plates (Falcon, Becton Dickinson Labware) at 10,000 cells/well in growth medium. […]
At the end of BrdU labeling, the medium is removed and BrdU incorporation is measured using a cell proliferation ELISA kit (#RPN 250, Amersham Life Science) according to manufacturer's instructions. […] Then 25 μl of 1 M sulfuric acid is added to each well to stop color reaction and optical density is read in a plate reader at 450 nm within 5 min.
Square root-transformed data are used for analysis of variance and nonlinear dose response curve fitting for both agonist and antagonist modes. […] EC50 or IC50 values are calculated from the retransformed values. […]

Question: Which melting point does the source give for `O=C1Nc2ccc(-c3cc(F)cc([N+](=O)[O-])c3)cc2C12CCCCC2` [Example 32, 5-(3-Fluoro-5-nitrophenyl)spiro[cyclohexane-1,3-[3H]indol]-2(1H)-one] here?
Answer: 191 to 193 °C

Question: And the inhibition in vivo at 10 mg/kg [1]?
Answer: 60%

Question: And the Ki [2]?
Answer: 9 nM

Question: Which results are given for `N#Cc1cc(-c2ccc3c(c2)C2(CCCCC2)C(=O)N3)cs1` [Example 34, 4-(1,2-Dihydro-2-oxospiro[cyclohexane-1,3-[3H]indol]-5-yl)-2-thiophenecarbonitrile]?
Answer: inhibition in vivo at 10 mg/kg [1]: 50%; Ki [2]: 19 nM

Question: With `N#Cc1ccc(-c2ccc3c(c2)C2(CCCCC2)C(=O)N3)s1` [Example 35] as the molecule, how does the melting point read?
Answer: 225 to 228 °C

Question: What about the inhibition in vivo at 10 mg/kg [1] of the same molecule?
Answer: 50%

Question: And the Ki [2]?
Answer: 22 nM

Question: Which results are given for `Cc1cc(C#N)sc1-c1ccc2c(c1)C1(CCCCC1)C(=O)N2` [Example 36, 4-Methyl-5-(2′-oxo-2′,3′-dihydrospiro[cyclohexane-1,3′-[3H]indol]-5′-yl)-2-thiophene carbonitrile]?
Answer: melting point: 200 to 203 °C; inhibition in vivo at 10 mg/kg [1]: 50%; Ki [2]: 4.8 nM

Question: Which melting point does the source give for `O=C1Nc2ccc(-c3ccc([N+](=O)[O-])[nH]3)cc2C12CCCCC2` [Example 44, 5′-(5-Nitro-1H-pyrrol-2-yl)spiro[cyclohexane-1,3′-[3H]indol]-2′(1′H)-one] here?
Answer: 278 °C (dec.)

Question: And the inhibition in vivo at 3 mg/kg ([1]; @ 3 mg/kg)?
Answer: 50%

Question: What about the Ki [2] of the same molecule?
Answer: 123 nM

Question: Which EC50 ([3]; Homo sapiens, T47D) does the source give for `CC(=O)O[C@]1(C(C)=O)CC[C@H]2[C@@H]3C[C@H](C)C4=CC(=O)CC[C@]4(C)[C@H]3CC[C@@]21C` [MPA, medroxyprogesterone acetate] here?
Answer: 0.019 nM

Question: Which EC50 [3] does the source give for `C[C@H](O)C(=O)[C@@]1(C)CC[C@H]2[C@@H]3CCC4=CC(=O)CCC4=C3CC[C@@]21C` [Trimegestone] here?
Answer: 0.017 nM and 0.014 nM and 0.019 nM
